Data reported in patent publication US20090274773A1, “ANTIPROLIFERATIVE COMBINATION COMPRISING CYC-682 AND A CYTOTOXIC AGENT” (Cyclacel Limited, priority 2005, published 2009).

Legend:
[1] = test system: COLO205; assay: MTT growth inhibition assay, single agent; type: cell-based, human; settings: Homo sapiens, COLO 205, 48 hours exposure, read-out: Antiproliferative effects IC50s (MTT assay)
Procedure: (§1) All cell lines were obtained from the ATCC (Rockville, Md.). Cells were grown as monolayers in RPMI medium supplemented with 10% fetal calf serum (Invitrogen, Cergy-Pontoise, France), 2 mM glutamine, 100 units/ml penicillin and 100 μg/ml streptomycin. All cells were split twice a week using trypsin/EDTA (0.25% and 0.02%, respectively; Invitrogen, Cergy-Pontoise, France) and seeded at a concentration of 2.5×10^4 cells/ml. All cell lines were tested regularly for Mycoplasma contamination by PCR using a Stratagene kit (La Jolla, Calif.).
(§2) The MTT assay was carried out as described previously (Hansen M B, Nielsen S E, Berg K. Re-examination and further development of a precise and rapid dye method for measuring cell growth/cell kill. J Immunol Methods. 1989 May 12; 119(2):203-10). In brief, cells were seeded in 96-well tissue culture plates at a density of 2×10^3 cells/well. Cell viability was determined after a 120-hour incubation, by the calorimetric conversion of yellow, water-soluble tetrazolium MTT (3-[4,5-dimethylthiazol-2-yl]-2,5-diphenyltetrazolium bromide; Sigma, Saint-Quentin Fallavier, France), into purple, water-insoluble formazan. This reaction is catalyzed by mitochondrial dehydrogenases and is used to estimate the relative number of viable cells (Mosmann, T, Rapid calorimetric assay for cellular growth and survival: application to proliferation and cytotoxicity assays. J Immunol Methods. 1983 Dec. 16; 65 (1-2):55-63). Cells were incubated with 0.4 mg/ml MTT for 4 hours at 37° C. After incubation, the supernatant was discarded, the cell pellet was resuspended in 0.1 ml of DMSO and the absorbance was measured at 560 nm using a microplate reader (Dynatech, Michigan). Wells with untreated cells or with drug-containing medium without cells were used as positive and negative controls, respectively. Growth inhibition curves were plotted as a percentage of untreated control cells.
(§3) The cells were seeded at 2×10^3 cells/well in 96-well plates and treated 24 hours later with increasing concentrations of CYC682. After incubation times of 1 hour, 24 hours or 48 hours, the cells were washed and post-incubated in drug-free medium for 72 hours. Growth inhibition was then determined by the MTT assay.

[2] = test system: HCC2998; assay: MTT growth inhibition assay, single agent; type: cell-based, human; settings: Homo sapiens, HCC 2998, 48 hours exposure, read-out: Antiproliferative effects IC50s (MTT assay)
Procedure: as §1, §2, §3

[3] = test system: HCT116; assay: MTT growth inhibition assay, single agent; type: cell-based, human; settings: Homo sapiens, HCT-116, 48 hours exposure, read-out: Antiproliferative effects IC50s (MTT assay)
Procedure: as §1, §2, §3

[4] = test system: HOP62; assay: MTT growth inhibition assay, single agent; type: cell-based, human; settings: Homo sapiens, HOP-62, 48 hours exposure, read-out: Antiproliferative effects IC50s (MTT assay)
Procedure: as §1, §2, §3

[5] = test system: HOP92; assay: MTT growth inhibition assay, single agent; type: cell-based, human; settings: Homo sapiens, HOP-92, 48 hours exposure, read-out: Antiproliferative effects IC50s (MTT assay)
Procedure: as §1, §2, §3

[6] = test system: HT29; assay: MTT growth inhibition assay, single agent; type: cell-based, human; settings: Homo sapiens, HT-29, 48 hours exposure, read-out: Antiproliferative effects IC50s (MTT assay)
Procedure: as §1, §2, §3

[7] = test system: IGROV1; assay: MTT growth inhibition assay, single agent; type: cell-based, human; settings: Homo sapiens, IGROV-1, 48 hours exposure, read-out: Antiproliferative effects IC50s (MTT assay)
Procedure: as §1, §2, §3

[8] = test system: MCF7; assay: MTT growth inhibition assay, single agent; type: cell-based, human; settings: Homo sapiens, 48 hours exposure, read-out: Antiproliferative effects IC50s (MTT assay)
Procedure: as §1, §2, §3

[9] = test system: MDA-MB-435; assay: MTT growth inhibition assay, single agent; type: cell-based, human; settings: Homo sapiens, 48 hours exposure, read-out: Antiproliferative effects IC50s (MTT assay)
Procedure: as §1, §2, §3

[10] = test system: OVCAR1; assay: MTT growth inhibition assay, single agent; type: cell-based, human; settings: Homo sapiens, 48 hours exposure, read-out: Antiproliferative effects IC50s (MTT assay)
Procedure: as §1, §2, §3

[11] = test system: panel of human cancer cell lines; assay: Antiproliferative effects as single agent in a panel of human cancer cell lines (MTT); type: cell-based
Procedure: as §2, with “Wells with untreated cells or with drug-containing medium without cells were used as positive and negative controls, respectively. Growth inhibition curves were plotted as a percentage of untreated control cells.” left out
The cells were seeded at 2×10^3 cells/well in 96-well plates and treated 24 hours later with increasing concentrations of CYC682. […] Growth inhibition was then determined by the MTT assay. […]

[12] = test system: colon cancer; settings: cited from earlier work
[13] = phase I, patients with a variety of cancers; cited from earlier work

SMILES	IC50 [1] [µM]	IC50 [2] [µM]	IC50 [3] [µM]	IC50 [4] [µM]	IC50 [5] [µM]	IC50 [6] [µM]	IC50 [7] [µM]	IC50 [8] [µM]	IC50 [9] [µM]	IC50 [10] [µM]	Cytotoxicity after 24 hour exposure ([11]; 24 hour exposure, panel of cell lines)	Antiproliferative activity in panel ([11]; most cancer cell lines)	Anticancer activity in a model of colon cancer ([12]; in vivo)	Increasing survival and preventing spread of colon cancer metastases to the liver, versus gemcitabine or 5-FU ([12]; same colon cancer model)	Dose limiting toxicity [13]	Tolerability in humans [13]
N#C[C@H]1[C@H](O)[C@@H](CO)O[C@H]1n1ccc(N)nc1=O [CNDAC, 1-(2-C-Cyano-2-deoxy-β-D-arabino-pentafuranosyl)-cytosine]	8 ± 2	110 ± 21	2.8 ± 0.6	7 ± 1.8	23 ± 6	160 ± 43	89 ± 12	850 ± 60	95 ± 13	> 900	not sufficient					
CCCCCCCCCCCCCCCC(=O)Nc1ccn([C@@H]2O[C@H](CO)[C@@H](O)[C@@H]2C#N)c(=O)n1 [CYC682, 2′-cyano-2′-deoxy-N^4-palmitoyl-1-β-D-arabinofuranosylcytosine]	5 ± 0.8	3.5 ± 0.8	3 ± 0.6	6 ± 1.7	38 ± 8	4.5 ± 0.7	6.5 ± 1.6	7 ± 1.8	67 ± 14	45 ± 7		antiproliferative activity at micromolar concentrations	strong anticancer activity	superior	myelosuppression	well tolerated
